According to patent US10398651B2, “Carrier-free nanoparticles” (priority 2016, dated 2019):

Assays:
HT-29 colon cancer cells = conditions: cited from earlier work
[1] = test system: HeLa cervical cancer cells; conditions: cited from earlier work
[2] = test system: K562 chronic myelogenous leukemia cells; conditions: cited from earlier work
[3] = test system: SKOV-3 human ovarian cancer cells; assay: IC50 determination, MTT assay, SKOV-3 cells; type: cell-based; conditions: SK-OV-3, SKOV3, 24 h treatment + 48 h post-treatment incubation
Experimental: (§1) Cytotoxicity of Cim-F-alb was tested with B16F10 cells and SKOV-3 human ovarian cancer cells (ATCC, Manassas, Va., USA) over a range of PTX concentrations. SKOV-3 cells were grown in RPMI-1640 medium containing 10% FBS and penicillin (100 IU/mL) and streptomycin (100 μg/mL). Both cells were treated with Cim-F-alb for 24 h, followed by post-treatment incubation in NC-free medium for 12-48 h. Free PTX and Abraxane were tested in the same manner for comparison. Cim-F-alb and Abraxane were directly reconstituted in PBS and serially diluted by a factor of 10. Free PTX solution was prepared as PTX stock solution in 50% DMSO at a concentration of 1 mg/mL and diluted in PBS. The maximum possible concentration of DMSO in the medium was 5% v/v. SKOV-3 cells and B16F10 cells grown in RPMI-1640 were tested with the MTT assay, and B16F10 cells grown in DMEM were tested with PI staining and flow cytometry. IC50 was calculated with GraphPad Prism 6 (La Jolla, Calif., USA).

[4] = As-received PTX dissolved in FBS-containing media after 6 h; type: physicochemical; conditions: 6 h at 37° C.
Experimental: FIG. 23. […] One milligram of PTX was added to 1 mL of each medium and incubated for 6 h with agitation. A supernatant was separated from the undissolved PTX by centrifugation at 135,700 rcf for 10 min, extracted with 3 mL of ethyl acetate, which was evaporated and reconstituted in 50% ACN for HPLC analysis. […] The FBS suspension was sampled at 6 h to quantify dissolved PTX by that time. A supernatant was separated from the sample by 10 min centrifugation at 135,700 rcf and analyzed in the same way. The incubation time was limited to 6 h due to the instability of PTX in serum. Since the extraction method cannot differentiate protein-bound PTX from free PTX, the measured values represent the sum of serum protein-bound and free PTX. • [1] G. Bajaj, M. R. Kim, S. I. Mohammed, Y. Yeo, Hyaluronic acid-based hydrogel for regional delivery of paclitaxel to intraperitoneal tumors, J. Control. Release 158 (2012) 386-392. • [2] I. Ringel, S. B. Horwitz, Taxol is converted to 7-epitaxol, a biologically active isomer, in cell culture medium, J. Pharmacol. Exp. Ther. 242 (1987) 692-698.

B16F10 cells [5] = assay: IC50 determination, PI staining and flow cytometry, B16F10 cells; type: cell-based; conditions: Mus musculus, B16-F10, 24 h treatment, PI staining + flow cytometry
Experimental: B16F10 cells grown in DMEM medium was tested with propidium iodide (PI) staining due to the production of melanin [32], which interferes with colorimetric assay. B16F10 cells were seeded in a 6 well plate at a density of 100,000 cells per well. After overnight incubation, the medium was replaced with fresh medium, to which 100 μL of PNC-alb, Cim-C-alb, or Cim-F-alb in PBS was added to provide the final concentration eq. to 30 μg/mL PTX. After incubation with NC for 3 h, cells were washed with PBS two times to remove NC, followed by additional incubation for 21 h in NC-free medium. Then, B16F10 cells were trypsinized and stained with PI (1 μg/mL) for 15 min in dark at room temperature. The cells were centrifuged at 300 g for 5 minutes to remove extra PI dye and reconstituted in PBS for flow cytometry (Accuri C6, BD Biosciences, San Jose, Calif.). At least 15,000 gated events were acquired, and FL-2 channel was monitored to determine the population of PI-stained cells.
Cytotoxicity of Cim-F-alb was tested with B16F10 cells and SKOV-3 human ovarian cancer cells (ATCC, Manassas, Va., USA) over a range of PTX concentrations. SKOV-3 cells were grown in RPMI-1640 medium containing 10% FBS and penicillin (100 IU/mL) and streptomycin (100 μg/mL). […] IC50 was calculated with GraphPad Prism 6 (La Jolla, Calif., USA).

B16F10 cells [6] = assay: IC50 determination, MTT assay, B16F10 cells; type: cell-based; conditions: Mus musculus
Experimental: Cytotoxicity of NC was tested with B16F10 cells. B16F10 cells were grown in RPMI-1640 or DMEM medium supplemented with 10% FBS, penicillin (100 IU/mL) and streptomycin (100 μg/mL). B16F10 cells grown in RPMI-1640 were seeded in a 96 well plate at a density of 10,000 cells per well. After overnight incubation, the culture medium was replaced with a fresh cell culture medium, to which PNC-alb, Cim-C-alb, or Cim-F-alb were added to provide the final concentration eq. to 30 μg/mL PTX. After 3 h incubation, cells were washed with PBS twice to remove NC, followed by additional incubation for 21 h in NC-free medium. The cell viability was determined by the MTT (3-(4,5-dimethylthiazol-2-yl)-2,5-diphenyltetrazolium bromide) assay. Cells were treated with 75 μg of MTT and incubated for 3.5 h. The formazan crystals were dissolved in stop/solubilization solution (50% DMF, 20% SDS, pH 5) and quantified with a SpectraMax M3 microplate reader (Molecular Devices, CA, USA) at the wavelength of 562 nm.
as §1

| IC50 [3] [nM] | PTX dissolved in 10% FBS [4] [µg/mL] | PTX dissolved in 50% FBS [4] [µg/mL] | PTX dissolved in undiluted FBS [4] [µg/mL] | IC50 (B16F10 cells [5]) [nM] | IC50 (B16F10 cells [6]; B16-F10, 24 h, B16F10, 24 h treatment + 24 h post-treatment incubation) [nM] | IC50 (B16F10 cells [6]; B16-F10, B16F10, 24 h treatment + 12 h post-treatment incubation) [nM] | IC50 (B16F10 cells [6]; B16-F10, B16F10, 24 h treatment + 48 h post-treatment incubation) [nM] | Structure (SMILES) | cytotoxicity (HT-29 colon cancer cells) | cytotoxicity [1] | cytotoxicity [2] |
| --- | --- | --- | --- | --- | --- | --- | --- | --- | --- | --- | --- |
| – | – | – | – | – | – | – | – | CCCCCCCCCCCCCCCC[N+](C)(C)C.[Br-] [CTAB, hexadecyltrimethylammonium bromide] | cytotoxic | cytotoxic | cytotoxic |
| 34.2 | 9.6 ± 2.6 | 47.5 ± 11.4 | 71.9 ± 8.2 | 423 | 213 | 91.3 | 765 | CC(=O)O[C@H]1C(=O)[C@@]2(C)[C@H]([C@H](OC(=O)c3ccccc3)[C@]3(O)C[C@H](OC(=O)[C@H](O)[C@@H](NC(=O)c4ccccc4)c4ccccc4)C(C)=C1C3(C)C)[C@]1(OC(C)=O)CO[C@@H]1C[C@@H]2O [Free PTX, paclitaxel] | – | – | – |
